We go through one compound from article PMC8551263, “Optineurin modulates the maturation of dendritic cells to regulate autoimmunity through JAK2-STAT3 signaling” (Nature Communications, 2021).

The target of this assay is T1, OPTN (Homo sapiens, UniProt Q96CV9).
T1 construct: protein for SPR
As to the kind of experiment: surface plasmon resonance. The following applies: rapid on-rate and off-rate kinetics; sensorgrams in Supplementary Fig. 7a, b. Type of assay: binding.

T1 sequence (Q96CV9 whole entry): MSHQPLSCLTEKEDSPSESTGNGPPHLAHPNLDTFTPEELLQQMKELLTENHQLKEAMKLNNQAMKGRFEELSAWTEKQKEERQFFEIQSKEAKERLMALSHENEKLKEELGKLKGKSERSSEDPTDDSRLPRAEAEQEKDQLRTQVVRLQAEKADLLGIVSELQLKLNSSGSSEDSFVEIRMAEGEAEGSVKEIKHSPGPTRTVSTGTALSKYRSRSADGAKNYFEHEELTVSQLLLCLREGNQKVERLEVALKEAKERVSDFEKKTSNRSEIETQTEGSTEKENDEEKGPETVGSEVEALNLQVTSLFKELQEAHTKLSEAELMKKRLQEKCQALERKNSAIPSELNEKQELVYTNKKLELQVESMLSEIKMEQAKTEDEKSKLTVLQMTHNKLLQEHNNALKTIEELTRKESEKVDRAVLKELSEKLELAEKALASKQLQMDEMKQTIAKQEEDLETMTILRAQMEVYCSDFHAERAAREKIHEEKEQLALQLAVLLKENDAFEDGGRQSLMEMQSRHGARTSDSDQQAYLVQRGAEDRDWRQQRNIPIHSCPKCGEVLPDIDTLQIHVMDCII

In turn, `C[C@H]1O[C@@H](O[C@H]2CC[C@@]3(C)[C@@H](CC[C@]4(C)[C@@H]3C=C[C@]35OC[C@@]6(CCC(C)(C)C[C@H]63)[C@H](O)C[C@]54C)[C@]2(C)CO)[C@H](O)[C@@H](O[C@@H]2O[C@H](CO)[C@@H](O)[C@H](O)[C@H]2O)[C@H]1O` [Saikosaponin D] yielded a KD of 5.115 × e^−5 M.
